These results are taken from patent US5284850A, “Terpene amino alcohols and medicinal uses thereof” (Kuraray Co., Ltd., priority 1985, dated 1994).

Each structure is given as a SMILES string.

What is called inhibition is the share of the control response that was lost under treatment.

The test deals with sensitized bronchial muscle. The test can be described thus: Antiallergic action: inhibition of egg albumin-induced contraction of sensitized guinea pig bronchial muscle. As to conditions: Cavia porcellus; for inhibition at 100 µM: 10^-4 M; for inhibition at 10 µM: 10^-5 M; for inhibition at 1 µM: 10^-6 M; for inhibition at 0.1 µM: 10^-7 M; for inhibition at 0.01 µM: 10^-8 M. In kind it is tissue-based, guinea pigs of Hartley strain. How it is done: Male guinea pigs of Hartley strain (body weight: about 250 g) were intraperitoneally or intramuscularly dosed with egg albumin (dose 100 mg/kg) and the same procedure was repeated after 3 days. After 3 to 4 weeks, the guinea pi-as were bled to death and the sensitized bronchial muscle was excised and cut into 1.5 mm thick rings. Three rings were joined to prepare a specimen. The specimen was suspended in a tissue bath and a load of 1 g was applied. […] After stabilization of the specimen (after about 1 hour), histamine hydrochloride was added to the bath at a final concentration of 10^-5 M. The contraction curve was recorded. After the contraction had been stabilized, the specimen was washed with 3 portions of Ringer's solution at 10-minute intervals to stabilize the contraction (about 1 hour was required). Then, the test compound was added to the tissue bath and, after an interval of 10 minutes, 5 mg/ml of egg albumin was added. The contraction amplitude of the specimen was measured and the percent inhibition was calculated according to the following formula. [formula] A: Contraction amplitude of control group when egg albumin is added A': Contraction amplitude of dosage group when egg albumin is added
H: Contraction amplitude of control group when histamine hydrochloride is added
H': Contraction amplitude of dosage group when histamine hydrochloride is added

As for `CCCCN(CCCC)CC(O)C(C)(O)CCC=C(C)C` (centres unmarked) [(1)], the inhibition at 100 µM came to 43.6%.

For the compound `CC(C)=CCCC(C)(O)C(O)CN(C)c1ccccc1` (centres unmarked) [(2)], the inhibition at 100 µM amounted to 58.7%, the inhibition at 10 µM worked out at 30.1% and the inhibition at 1 µM stood at 19.9%.

In the case of `CC(C)=CCCC(C)(O)C(O)CN1CCCC1` (centres unmarked) [(3)], the inhibition at 10 µM was 36.3%, the inhibition at 1 µM was 60%, the inhibition at 0.1 µM amounted to 34.2% and the inhibition at 0.01 µM was 30.8%.

For `CNCC(O)C(C)(O)CCCC(C)CCCC(C)CCCC(C)C` (centres unmarked) [(31)], the inhibition at 10 µM stood at 10.9%.

In the case of `CCN(CC)CC(O)C(C)(O)CCCC(C)CCCC(C)CCCC(C)C` (centres unmarked) [(33)], the inhibition at 10 µM was found to be 47.9% and the inhibition at 1 µM was 32.6%.

In the case of `CC(C)=CCCC(C)(O)C(O)CN1CCCCC1` (centres unmarked) [Compound (4)], the inhibition at 10 µM was 42% and the inhibition at 1 µM came to 2.6%.

As to `CC(C)=CCCC(C)(O)C(O)CN1CCOCC1` (centres unmarked) [Compound (5)], the inhibition at 10 µM is 28.9%, the inhibition at 1 µM worked out at 71.5% and the inhibition at 0.1 µM was found to be 23%.

As to `CC(C)=CCCC(C)(O)C(O)CN(C)CCO` (centres unmarked) [Compound (6)], the inhibition at 10 µM was 48.2% and the inhibition at 1 µM was 28.6%.

With `CC(C)CCCC(C)(O)C(O)CN` (centres unmarked) [Compound (7)], the inhibition at 10 µM is 54.3%, the inhibition at 1 µM amounted to 48.1% and the inhibition at 0.1 µM turned out to be 58.7%.

On to `CNCC(O)C(C)(O)CCCC(C)C` (centres unmarked) [Compound (8)], for which the inhibition at 100 µM was determined as 52.6% and the inhibition at 10 µM is 37.8%.

For the compound `CCCCN(CCCC)CC(O)C(C)(O)CCCC(C)C` (centres unmarked) [Compound (9)], the inhibition at 10 µM came out at 27.9%, the inhibition at 1 µM was 67.2%, the inhibition at 0.1 µM came to 56% and the inhibition at 0.01 µM amounted to 16%.

`CC(C)CCCC(C)(O)C(O)CNCCO` (centres unmarked) [Compound (10)]: the inhibition at 10 µM is 81.2% and the inhibition at 1 µM was 23.8%.

As to `CC(C)CCCC(C)CCCC(C)(O)C(O)CN` (centres unmarked) [Compound (11), 1-amino-3,7,11-trimethyl-2,3-dodecanediol], the inhibition at 10 µM came out at 40.7% and the inhibition at 1 µM was determined as 32.5%.

`CNCC(O)C(C)(O)CCCC(C)CCCC(C)C` (centres unmarked) [Compound (12), 1-methylamino-3,7,11-trimethyl-2,3-dodecanediol]: the inhibition at 100 µM is 48.3% and the inhibition at 10 µM came out at 35.4%.

For the compound `CCCCN(CCCC)CC(O)C(C)(O)CCCC(C)CCCC(C)C` (centres unmarked) [Compound (13), 1-dibutylamino-3,7,11-trimethyl-2,3-dodecanediol], the inhibition at 100 µM was 40.2%.

With `CC(C)CCCC(C)CCCC(C)(O)C(O)CNCCO` (centres unmarked) [Compound (14)], the inhibition at 10 µM came to 48.7% and the inhibition at 1 µM was determined as 51.4%.

For the compound `CC(C)CCCC(C)CCCC(C)(O)C(O)CN(C)C` (centres unmarked) [Compound (16), 1-(dimethylamino)-3,7,11-trimethyl-2,3-dodecanediol], the inhibition at 10 µM was determined as 48%, the inhibition at 1 µM was determined as 35% and the inhibition at 0.1 µM worked out at 15%.

As for `CC(C)CCCC(C)CCCC(C)(O)C(O)CN1CCOCC1` (stereo not drawn) [Compound (17), 3,7,11-trimethyl-l-morpholino-2,3-dodecanediol], the inhibition at 10 µM came to 45%, the inhibition at 1 µM amounted to 68% and the inhibition at 0.1 µM was 29%.

For the compound `COc1ccc(CN2CCN(CC(O)C(C)(O)CCCC(C)CCCC(C)C)CC2)c(OC)c1OC` (stereo not drawn) [Compound (18), 3,7,11-trimethyl-l-[4-[(2,3,4-trimethoxyphenyl)methyl]piperazin-1-yl]-2,3-dodecanediol], the inhibition at 10 µM turned out to be 62%, the inhibition at 1 µM stood at 79% and the inhibition at 0.1 µM came to 45%.

As for `CC(C)CCCC(C)CCCC(C)(O)C(O)CNc1ccc(O)cc1` (centres unmarked) [Compound (19)], the inhibition at 10 µM was found to be 43%, the inhibition at 1 µM is 54% and the inhibition at 0.1 µM was 33%.

On to `CC(C)CCCC(C)CCCC(C)(O)C(O)CNc1ccncc1` (centres unmarked) [Compound (20)], for which the inhibition at 1 µM turned out to be 71%, the inhibition at 0.1 µM came out at 40% and the inhibition at 0.01 µM was determined as 15%.

In the case of `CC(C)CCCC(C)CCCC(C)(O)C(O)Cn1ccnc1` (centres unmarked) [Compound (21), 1-(1H-imidazol-1-yl)-3,7,11-trimethyl-2,3-dodecanediol], the inhibition at 0.1 µM amounted to 66.9%.

As for `CC(C)CCCC(C)CCCC(C)(O)C(O)CNCCCN1CCOCC1` (centres unmarked) [Compound (22)], the inhibition at 0.1 µM worked out at 46.9%.

`CC(C)CCCC(C)CCCC(C)(O)C(O)CNc1cccc2ncccc12` (centres unmarked) [Compound (23)]: the inhibition at 1 µM was determined as 76%, the inhibition at 0.1 µM worked out at 55% and the inhibition at 0.01 µM was 27%.

Consider `CC(C)CCCC(C)CCCC(C)(O)C(O)CN1CCN(C(c2ccccc2)c2ccccc2)CC1` (centres unmarked) [Compound (24)], for which the inhibition at 1 µM came to 75%, the inhibition at 0.1 µM turned out to be 60% and the inhibition at 0.01 µM worked out at 25%.

In the case of `CC(C)CCCC(C)CCCC(C)(O)C(O)Cn1c(=O)[nH]c2ccccc21` (centres unmarked) [Compound (25)], the inhibition at 1 µM was 69%, the inhibition at 0.1 µM amounted to 47% and the inhibition at 0.01 µM came out at 19%.

Consider `CC(C)CCCC(C)CCCC(C)(O)C(O)CN1CCSCC1` (centres unmarked) [Compound (26)], for which the inhibition at 10 µM came out at 50%, the inhibition at 1 µM amounted to 39% and the inhibition at 0.1 µM was found to be 18%.

In the case of `CNCCC(C)(O)CCCC(C)(O)CCCC(C)C` (centres unmarked) [Compound (27), 1-(methylamino)-3,7,11-trimethyl-3,7-dodecanediol], the inhibition at 0.1 µM was found to be 15.6%.

As for `CNCC(O)C(C)CCCC(C)CCCC(C)C` (centres unmarked) [Compound (28), 1-methylamino-3,7,11-trimethyl-2-dodecanol], the inhibition at 10 µM worked out at 66%, the inhibition at 1 µM was 49% and the inhibition at 0.1 µM amounted to 35%.

With `CC(C)CCCC(C)(O)CCCC(C)(O)CCN(C)Cc1ccccc1` (centres unmarked) [Compound (29), 1-(methylbenzylamino)-3,7,11-trimethyl-3,7-dodecanediol], the inhibition at 0.1 µM is 42.3%.

Take `CC(C)CCCC(C)CCCC(C)CCCC(C)(O)C(O)CN` (centres unmarked) [Compound (30)]: the inhibition at 10 µM was 16.7% and the inhibition at 1 µM was found to be 9%.

Regarding `CCCCN(CCCC)CC(O)C(C)(O)CCCC(C)CCCC(C)CCCC(C)C` (centres unmarked) [Compound (34)], the inhibition at 10 µM came to 65.2%, the inhibition at 1 µM was found to be 33% and the inhibition at 0.1 µM came to 3%.

With `CN(CCC(C)(O)CCCC(C)(O)CCCC(C)(C)O)Cc1ccccc1` (centres unmarked) [Compound (37), 1-(methylbenzylamino)-3,7,11-trimethyl-3,7,11-dodecanetriol], the inhibition at 0.1 µM is 16%.

As to `CC(C)CCCC(C)CCCC(C)(O)C(O)CN1CCCC1` (centres unmarked) [Compound (38)], the inhibition at 0.1 µM turned out to be 36.7%.

With `CC(C)CCCC(C)CCCC(C)(O)C(O)CN1CCCCC1` (centres unmarked) [Compound (39)], the inhibition at 0.1 µM turned out to be 29.1%.

As to `CC(C)CCCC(C)CCCC(C)(O)C(O)CNC1CCN(Cc2ccccc2)CC1` (centres unmarked) [Compound (40), 1-[(1-benzylpiperidin-4-yl)amino]-3,7-11-trimethyl-2,3-dodecanediol], the inhibition at 0.1 µM is 34.8%.

For `CC(C)CCCC(C)CCCC(C)(O)C(O)CNCc1cccnc1` (centres unmarked) [Compound (41)], the inhibition at 0.1 µM came out at 46%.
